{
  "source": "patent US4788216A",
  "about": "“Medicinal uses for podophyllotoxins” (Conpharm AB, priority 1984, dated 1988)",
  "key": {"[1]": {"assay": "Acute toxicity in rabbit", "conditions": "in vivo, topical or ocular, dermal", "source_text": "(§1) The acute toxicity of podophyllotoxin has been determined on various test animals and by various ways of administration."}, "[2]": {"system": "Plasmodium falciparum", "assay": "Clinical effect against malaria (number of asexual parasites in blood of patients)", "type": "in vivo", "conditions": "individual patient", "experimental": "The effect against malaria was determined clinically on a number of patients which had been attacked by the malaria parasite Plasmodium falciparum. Podophyllotoxin was administered in two different doses and the number of parasites in the patients was determined for each day and was noted as the number of asexual parasites per cubic millimeter of blood."}, "[3]": {"assay": "Solubility in water", "type": "physicochemical", "conditions": "in its pure state", "source_text": "The compound podophyllotoxin has the following physical data in its pure state: […]"}, "[4]": {"system": "formation of specific antibodies", "assay": "Antibody formation in mice injected with sheep erythrocytes", "type": "in vivo", "conditions": "daily injections after administration of erythrocytes, spleen", "source_text": "Injection with a suspension of erythrocytes from sheep to mice causes formation of specific antibodies against this antigen. This reaction which normally is very strong requires a cooperation between different cell types, substantially macrophages, T and B lymphocytes, and can easily be detected in the spleen of the test animals."}, "[5]": {"system": "cytotoxic cells", "assay": "In vitro development of cytotoxic cells", "type": "cell-based"}, "[6]": {"system": "proliferation of cells", "assay": "In vitro proliferation of cells caused by mitogenic lectins or cells from a non-related individual", "type": "cell-based"}, "[7]": {"assay": "Acute toxicity in rat", "conditions": "in vivo", "source_text": "as §1"}, "[8]": {"system": "psoriasis vulgaris lesions", "assay": "Clinical investigation in psoriasis vulgaris patients, topical cream", "type": "in vivo, human (patients)", "experimental": "A clinical investigation was carried out with totally 152 patients of an age between 19 and 71 years (mean value 46.1 years) afflicted with psoriasis vulgaris. The patients were divided into three groups of 50, 51 and 51 persons who were treated topically with a cream containing 0.1, 0.25 and 0.5% of podophyllotoxin, respectively. Each patient was treated only on a specific attacked area of the body while other attacked areas served as comparison. The severity of the attack was judged at the start of the treatment, and 2, 4, 8, 12 and 16 weeks after this, no treatment being carried out during the last period of 4 weeks. The investigation was carried out with double blind technique and the results were treated statistically."}, "[9]": {"assay": "Acute toxicity in mouse", "conditions": "in vivo", "source_text": "as §1"}},
  "note": "“And” between values parts separate entries of the source, which are not always exact repeats. Equal values may be shown once.",
  "data": [
    {"smiles": "COc1cc([C@@H]2c3cc4c(cc3[C@H](O)[C@H]3COC(=O)[C@H]23)OCO4)cc(OC)c1OC", "note": "[podophyllotoxin]", "values": [
      {"measurement": "LD50", "setting": "[1]", "value": 200, "unit": "mg/kg"},
      {"measurement": "Remarks (outcome)", "setting": "[2]; 1.5 mg per day (t.i.d.)", "value": "Marked reduction of parasites"},
      {"measurement": "number of asexual parasites, day 0", "setting": "[2]; 1.5 mg per day (t.i.d.)", "value": "660 asexual parasites per cubic mi and 13710 asexual parasites per cubic mi and 1410 asexual parasites per cubic mi and 960 asexual parasites per cubic mi and 13080 asexual parasites per cubic mi and 4380 asexual parasites per cubic mi"},
      {"measurement": "number of asexual parasites, day 1", "setting": "[2]; 1.5 mg per day (t.i.d.)", "value": "180 asexual parasites per cubic mi and 3000 asexual parasites per cubic mi and 360 asexual parasites per cubic mi and 90 asexual parasites per cubic mi and 510 asexual parasites per cubic mi and 1560 asexual parasites per cubic mi"},
      {"measurement": "number of asexual parasites, day 2", "setting": "[2]; 1.5 mg per day (t.i.d.)", "value": "0 asexual parasites per cubic mi and 120 asexual parasites per cubic mi and 180 asexual parasites per cubic mi"},
      {"measurement": "number of asexual parasites, day 3", "setting": "[2]; 1.5 mg per day (t.i.d.)", "value": "0 asexual parasites per cubic mi and 660 asexual parasites per cubic mi"},
      {"measurement": "number of asexual parasites, day 4", "setting": "[2]; 1.5 mg per day (t.i.d.)", "value": "180 asexual parasites per cubic mi and 0 asexual parasites per cubic mi and 60 asexual parasites per cubic mi and 1400 asexual parasites per cubic mi"},
      {"measurement": "number of asexual parasites, day 5", "setting": "[2]; 1.5 mg per day (t.i.d.)", "value": "270 asexual parasites per cubic mi and 0 asexual parasites per cubic mi and 60 asexual parasites per cubic mi"},
      {"measurement": "number of asexual parasites, day 6", "setting": "[2]; 1.5 mg per day (t.i.d.)", "value": "270 asexual parasites per cubic mi and 0 asexual parasites per cubic mi and 60 asexual parasites per cubic mi"},
      {"measurement": "number of asexual parasites, day 7", "setting": "[2]; 1.5 mg per day (t.i.d.)", "value": "270 asexual parasites per cubic mi and 0 asexual parasites per cubic mi and 60 asexual parasites per cubic mi"},
      {"measurement": "Remarks (outcome)", "setting": "[2]; 3.0 mg per day (t.i.d.)", "value": "Cured"},
      {"measurement": "number of asexual parasites, day 0", "setting": "[2]; 3.0 mg per day (t.i.d.)", "value": "2880 asexual parasites per cubic mi and 2060 asexual parasites per cubic mi and 6080 asexual parasites per cubic mi and 320 asexual parasites per cubic mi"},
      {"measurement": "number of asexual parasites, day 1", "setting": "[2]; 3.0 mg per day (t.i.d.)", "value": "2520 asexual parasites per cubic mi and 1600 asexual parasites per cubic mi and 2000 asexual parasites per cubic mi and 60 asexual parasites per cubic mi"},
      {"measurement": "number of asexual parasites, day 2", "setting": "[2]; 3.0 mg per day (t.i.d.)", "value": "60 asexual parasites per cubic mi and 0 asexual parasites per cubic mi"},
      {"measurement": "number of asexual parasites, day 3", "setting": "[2]; 3.0 mg per day (t.i.d.)", "value": "540 asexual parasites per cubic mi and 0 asexual parasites per cubic mi"},
      {"measurement": "number of asexual parasites, day 4", "setting": "[2]; 3.0 mg per day (t.i.d.)", "value": "600 asexual parasites per cubic mi and 0 asexual parasites per cubic mi"},
      {"measurement": "number of asexual parasites, day 5", "setting": "[2]; 3.0 mg per day (t.i.d.)", "value": "600 asexual parasites per cubic mi and 0 asexual parasites per cubic mi"},
      {"measurement": "number of asexual parasites, day 6", "setting": "[2]; 3.0 mg per day (t.i.d.)", "value": "0 asexual parasites per cubic mi"},
      {"measurement": "number of asexual parasites, day 7", "setting": "[2]; 3.0 mg per day (t.i.d.)", "value": "0 asexual parasites per cubic mi"},
      {"measurement": "solubility", "setting": "[3]", "value": 120, "unit": "µg/mL"},
      {"measurement": "inhibition of antibody formation against sheep erythrocytes", "setting": "[4]", "value": "inhibited in a dose-dependent way"},
      {"measurement": "inhibition of development of cytotoxic cells", "setting": "[5]", "value": "inhibits the development of cytotoxic cells"},
      {"measurement": "effects at markedly lower doses (development of cytotoxic cells)", "setting": "[5]; markedly lower doses", "value": "at markedly lower doses these effects increase"},
      {"measurement": "time to recover complete reactivity to the stimuli", "setting": "[6]; cells treated with podophyllotoxin", "value": "≤ 24", "unit": "h"},
      {"measurement": "effects at markedly lower doses (proliferation)", "setting": "[6]; in vitro, markedly lower doses", "value": "at markedly lower doses these effects increase"},
      {"measurement": "inhibition of proliferation of cells", "setting": "[6]; in vitro, mitogenic lectins or cells from a non-related individual", "value": "inhibits the proliferation of cells"},
      {"measurement": "LD50", "setting": "[7]; iv", "value": 10, "unit": "mg/kg"},
      {"measurement": "LD50", "setting": "[7]; topical or ocular, dermal", "value": 500, "unit": "mg/kg"},
      {"measurement": "reversibility of secondary effects", "setting": "[8]; after interruption of the treatment", "value": "disappeared after interruption of the treatment"},
      {"measurement": "difference between treated and untreated lesions", "setting": "[8]; after two weeks and in the course of the treatment", "value": "statistically significant difference"},
      {"measurement": "patients free from symptoms or with only mild ones", "setting": "[8]; at the fifth control, untreated lesions: only two patients", "value": "70-75%"},
      {"measurement": "improvement of severity of treated lesions with associated symptoms", "setting": "[8]; cream 0.1, 0.25 and 0.5%, all three dosage levels", "value": "statistically significant improvements"},
      {"measurement": "patients reporting secondary effects such as rash", "setting": "[8]; of 152 patients, three cream strengths together", "value": 11, "unit": "patients"},
      {"measurement": "deterioration of severity or symptoms of treated lesions in follow-up", "setting": "[8]; weeks 13 to 16, no treatment", "value": "no deterioration occurred"},
      {"measurement": "LD50", "setting": "[9]; iv", "value": 20, "unit": "mg/kg"},
      {"measurement": "LD50", "setting": "[9]; po", "value": 100, "unit": "mg/kg"}
    ]}
  ]
}
